Results from publication PMC9728092 (RSC Advances, 2022).

Molecular target: AChE (Homo sapiens, UniProt P22303)
Test: AChE inhibitory assay in vitro
Assay type: biochemical

Chain of AChE (P22303 32-614): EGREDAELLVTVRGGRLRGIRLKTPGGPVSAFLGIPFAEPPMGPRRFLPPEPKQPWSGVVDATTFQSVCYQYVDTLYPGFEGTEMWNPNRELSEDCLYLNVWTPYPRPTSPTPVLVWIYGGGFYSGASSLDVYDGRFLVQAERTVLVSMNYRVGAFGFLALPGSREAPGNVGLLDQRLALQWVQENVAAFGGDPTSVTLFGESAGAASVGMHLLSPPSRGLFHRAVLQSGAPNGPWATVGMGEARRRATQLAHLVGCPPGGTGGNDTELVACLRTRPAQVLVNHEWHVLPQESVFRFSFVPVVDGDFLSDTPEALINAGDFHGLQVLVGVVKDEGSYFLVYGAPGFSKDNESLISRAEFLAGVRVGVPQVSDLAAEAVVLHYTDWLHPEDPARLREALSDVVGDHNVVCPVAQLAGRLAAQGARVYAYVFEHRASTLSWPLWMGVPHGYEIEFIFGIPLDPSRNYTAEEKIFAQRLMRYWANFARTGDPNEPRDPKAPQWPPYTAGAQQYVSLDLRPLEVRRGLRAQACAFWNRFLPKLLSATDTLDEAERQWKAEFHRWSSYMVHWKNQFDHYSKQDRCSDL

O=c1c(O)c(-c2ccc(O)cc2)oc2cc(O)cc(O)c12 [Compound 8, kaempferol]
IC50: 17.9 ± 0.18 µM

O=c1c(O)c(-c2ccc(O)c(O)c2)oc2cc(O)cc(O)c12 [Compound 9, quercetin]
IC50: 3.96 ± 0.27 µM

O=C1c2c(O)cc(O)cc2O[C@H](c2ccc(O)cc2)[C@H]1O [Compound 10, dihydrokaempferol]
IC50: > 50 µM
